Experiments:
Mus musculus [1] = assay: Acute toxicity in mouse assessed as body weight change at 677 to 2000 mg/kg, po measured continuously for first 4 hrs and intermittently for next 24 hrs and occasionally for 14 days; format: organism-based; conditions: in vivo
Mus musculus [2] = assay: Acute toxicity in mouse assessed as mortality at 677 to 2000 mg/kg, po measured continuously for first 4 hrs and intermittently for next 24 hrs and occasionally for 14 days; format: organism-based; conditions: in vivo
PC-12 [3] = assay: Neuroprotective activity against H2O2-induced apoptosis in rat PC12 cells assessed as late apoptotic cells at 10 uM after 24 hrs by Annexin V-FITC/propidium iodide staining-based flow cytometry (reference value: 25.3%); format: functional
Mus musculus [4] = assay: Acute toxicity in mouse assessed as abnormal changes in heart at 2000 mg/kg, po measured continuously for first 4 hrs and intermittently for next 24 hrs and occasionally for 14 days by hematoxylin and eosin staining based microscopic method; format: organism-based; conditions: in vivo
PC-12 [5] = assay: Cytotoxicity against rat PC12 cells assessed as decrease in cell viability at 30 uM after 24 hrs by MTT assay; format: cell-based; conditions: pc-12, 24 h
PC-12 [6] = assay: Reversal of H2O2-induced calcium overload in rat PC12 cells assessed as mean fluorescence intensity at 2.5 uM after 48 hrs by Fluo-3/AM probe based flow cytometry (reference value: 454014); format: functional
PC-12 [7] = assay: Neuroprotective activity against H2O2-induced apoptosis in rat PC12 cells assessed as viable cells at 10 uM after 24 hrs by Annexin V-FITC/propidium iodide staining-based flow cytometry (reference value: 68.4%); format: functional; conditions: PC-12, 24 h, read-out: Activity
PC-12 [8] = assay: Reversal of H2O2-induced calcium overload in rat PC12 cells assessed as mean fluorescence intensity at 5 uM after 48 hrs by Fluo-3/AM probe based flow cytometry (reference value: 454014); format: functional
PC-12 [9] = assay: Reversal of H2O2-induced calcium overload in rat PC12 cells assessed as mean fluorescence intensity at 10 uM after 48 hrs by Fluo-3/AM probe based flow cytometry (reference value: 454014); format: functional
Acetylcholinesterase [10] = biological target: T1, Acetylcholinesterase (Homo sapiens, UniProt P22303); assay: Mixed-type inhibition of human AChE using acetylthiocholine chloride as substrate incubated for 5 mins followed by substrate addition by Lineweaver-Burk plot analysis
PC-12 [11] = assay: Neuroprotective activity against H2O2-induced apoptosis in rat PC12 cells assessed as early apoptotic cells at 10 uM after 24 hrs by Annexin V-FITC/propidium iodide staining-based flow cytometry (reference value: 1.4%); format: functional
BV-2 [12] = assay: Inhibition of LPS-induced intracellular ROS production in mouse BV2 cells assessed as mean fluorescence intensity at 5 uM incubated with LPS for 18 hrs followed by compound addition measured after 36 hrs by DCFH-DA probe based flow cytometry (reference value: 493530); format: functional
PC-12 [13] = assay: Neuroprotective activity against H2O2-induced apoptosis in rat PC12 cells assessed as necrotic cells at 5 uM after 24 hrs by Annexin V-FITC/propidium iodide staining-based flow cytometry (reference value: 4.9%); format: functional
[14] = Effective permeability of the compound at […] after 16 hrs by PAMPA-BBB assay; format: ADME; conditions: read-out: Peff
[15] = Antioxidant activity assessed as trolox equivalent of AAPH-induced radical scavenging activity preincubated for 15 mins followed by AAPH addition measured every minute for 120 mins by ORAC-FL based fluorescein assay; format: functional
Homo sapiens = species on record: Homo sapiens; assay: Selectivity index, ratio of IC50 for human serum BuChE to IC50 for human erythrocyte AChE
PC-12 [16] = assay: Neuroprotective activity against H2O2-induced apoptosis in rat PC12 cells assessed as late apoptotic cells at 5 uM after 24 hrs by Annexin V-FITC/propidium iodide staining-based flow cytometry (reference value: 25.3%); format: functional
Mus musculus [17] = assay: Toxicity in ICR mouse assessed as change in body weight at 5 to 10 mg/kg, po administered for 10 consecutive days; format: organism-based; conditions: in vivo
Acetylcholinesterase [18] = biological target: T1, Acetylcholinesterase; assay: Inhibition of human erythrocyte AChE using acetylthiocholine chloride as substrate incubated for 5 mins followed by substrate addition measured after 180 secs by Ellman's method
[19] = biological target: T2, Amine oxidase [flavin-containing] A (Homo sapiens, UniProt P21397); assay: Inhibition of human MAO-A using p-tyramine as substrate incubated for 15 mins followed by substrate addition measured for 20 mins by fluorescence assay
T2 sequence (P21397 whole entry): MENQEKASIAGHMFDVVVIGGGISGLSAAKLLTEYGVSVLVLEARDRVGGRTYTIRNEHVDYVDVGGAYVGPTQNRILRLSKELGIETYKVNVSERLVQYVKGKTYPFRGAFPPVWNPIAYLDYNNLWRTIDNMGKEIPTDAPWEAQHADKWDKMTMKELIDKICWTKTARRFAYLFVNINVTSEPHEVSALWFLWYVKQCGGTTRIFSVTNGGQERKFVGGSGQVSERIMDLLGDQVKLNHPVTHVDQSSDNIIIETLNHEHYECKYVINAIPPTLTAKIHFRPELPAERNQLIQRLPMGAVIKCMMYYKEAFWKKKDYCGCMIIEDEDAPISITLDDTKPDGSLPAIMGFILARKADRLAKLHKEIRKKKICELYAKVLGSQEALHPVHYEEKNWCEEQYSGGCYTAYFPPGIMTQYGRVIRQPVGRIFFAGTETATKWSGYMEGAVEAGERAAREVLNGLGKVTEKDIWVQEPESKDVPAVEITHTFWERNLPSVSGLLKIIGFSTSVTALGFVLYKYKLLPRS

Acetylcholinesterase [20] = biological target: Acetylcholinesterase (Electrophorus electricus, UniProt O42275); assay: Inhibition of electric eel AChE using acetylthiocholine chloride as substrate incubated for 5 mins followed by substrate addition measured after 180 secs by Ellman's method
[21] = biological target: Amyloid-beta precursor protein (Homo sapiens) (UniProt P05067); assay: Inhibition of self-induced amyloid beta 42 (unknown origin) aggregation at 20 uM incubated for 46 to 48 hrs by thioflavin-T fluorescence assay relative to control
BV-2 [22] = assay: Inhibition of LPS-induced intracellular ROS production in mouse BV2 cells assessed as mean fluorescence intensity incubated with LPS for 18 hrs followed by compound addition measured after 36 hrs by DCFH-DA probe based flow cytometry; format: functional, cell-based

T1 sequence (P22303 whole entry): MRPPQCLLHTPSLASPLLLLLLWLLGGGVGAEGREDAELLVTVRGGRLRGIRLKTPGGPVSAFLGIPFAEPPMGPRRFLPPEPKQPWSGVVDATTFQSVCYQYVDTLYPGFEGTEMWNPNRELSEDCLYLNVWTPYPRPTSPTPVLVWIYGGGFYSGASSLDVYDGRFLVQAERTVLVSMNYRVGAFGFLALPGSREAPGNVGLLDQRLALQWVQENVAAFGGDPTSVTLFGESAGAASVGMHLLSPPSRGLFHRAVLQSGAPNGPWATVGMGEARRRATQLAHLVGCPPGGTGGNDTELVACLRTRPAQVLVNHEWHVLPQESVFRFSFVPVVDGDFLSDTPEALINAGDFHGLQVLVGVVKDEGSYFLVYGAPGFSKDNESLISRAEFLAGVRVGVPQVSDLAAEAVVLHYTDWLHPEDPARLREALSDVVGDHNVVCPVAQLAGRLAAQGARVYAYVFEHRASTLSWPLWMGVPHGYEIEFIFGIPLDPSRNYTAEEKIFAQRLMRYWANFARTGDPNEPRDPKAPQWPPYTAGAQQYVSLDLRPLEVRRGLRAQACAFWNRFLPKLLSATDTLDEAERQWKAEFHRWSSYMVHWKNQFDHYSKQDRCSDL
Sequence of Amyloid-beta precursor protein (Homo sapiens) (P05067 whole entry): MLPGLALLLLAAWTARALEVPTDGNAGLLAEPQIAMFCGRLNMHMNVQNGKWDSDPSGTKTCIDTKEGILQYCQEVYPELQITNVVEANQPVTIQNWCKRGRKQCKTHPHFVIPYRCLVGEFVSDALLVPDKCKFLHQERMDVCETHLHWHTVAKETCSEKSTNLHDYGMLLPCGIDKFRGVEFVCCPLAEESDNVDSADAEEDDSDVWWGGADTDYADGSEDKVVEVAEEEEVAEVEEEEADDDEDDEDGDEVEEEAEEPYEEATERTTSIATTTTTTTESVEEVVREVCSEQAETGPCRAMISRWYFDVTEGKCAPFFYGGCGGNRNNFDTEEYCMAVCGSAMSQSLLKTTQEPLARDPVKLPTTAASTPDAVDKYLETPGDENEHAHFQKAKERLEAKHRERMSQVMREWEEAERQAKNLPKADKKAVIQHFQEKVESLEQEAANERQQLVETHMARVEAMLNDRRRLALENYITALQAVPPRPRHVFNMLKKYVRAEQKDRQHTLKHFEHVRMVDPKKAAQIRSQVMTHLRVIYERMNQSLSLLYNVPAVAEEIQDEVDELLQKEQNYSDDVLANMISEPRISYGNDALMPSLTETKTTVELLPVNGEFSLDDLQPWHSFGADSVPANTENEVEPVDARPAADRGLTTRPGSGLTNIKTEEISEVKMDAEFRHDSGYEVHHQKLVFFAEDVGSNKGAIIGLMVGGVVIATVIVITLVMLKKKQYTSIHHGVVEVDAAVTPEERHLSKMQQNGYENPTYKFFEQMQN
Sequence of Acetylcholinesterase (Electrophorus electricus, UniProt O42275) (O42275 whole entry): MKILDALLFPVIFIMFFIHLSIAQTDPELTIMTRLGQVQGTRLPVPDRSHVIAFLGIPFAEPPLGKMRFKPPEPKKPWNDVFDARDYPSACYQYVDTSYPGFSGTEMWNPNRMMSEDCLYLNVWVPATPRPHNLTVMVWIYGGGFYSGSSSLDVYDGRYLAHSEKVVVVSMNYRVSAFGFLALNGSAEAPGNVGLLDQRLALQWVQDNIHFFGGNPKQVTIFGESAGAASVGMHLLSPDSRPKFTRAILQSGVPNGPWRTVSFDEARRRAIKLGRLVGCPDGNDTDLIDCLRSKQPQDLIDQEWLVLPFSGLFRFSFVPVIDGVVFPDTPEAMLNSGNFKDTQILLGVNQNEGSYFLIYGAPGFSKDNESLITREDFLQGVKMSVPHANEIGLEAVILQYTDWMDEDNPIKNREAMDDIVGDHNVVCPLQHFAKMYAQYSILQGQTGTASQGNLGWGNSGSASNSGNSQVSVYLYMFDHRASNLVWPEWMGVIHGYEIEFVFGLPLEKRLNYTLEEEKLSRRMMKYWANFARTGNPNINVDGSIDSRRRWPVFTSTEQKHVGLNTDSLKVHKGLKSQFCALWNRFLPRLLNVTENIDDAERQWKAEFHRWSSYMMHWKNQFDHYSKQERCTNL

In the case of CC(C)(C)c1cc(/C=C/C(=O)NCCC2CCN(Cc3ccccc3F)CC2)cc(C(C)(C)C)c1O, the Activity (Mus musculus [1]) is reported as “Non-Toxic”, the Activity (Mus musculus [2]) is reported as “Non-Toxic” and the Activity (PC-12 [3]) is reported as 5.7%. The Activity (Mus musculus [4]) was “Non-Toxic”, the Activity (PC-12 [5]) was “Toxic” and the Flu intensity (PC-12 [6]) was 347633. It also gave a viability at 10 µM (PC-12 [7]) of 92.4%, a Flu intensity (PC-12 [8]) of 251576 and a Flu intensity (PC-12 [9]) of 157903. The Ki (Acetylcholinesterase [10]) was 1.4 µM, the Activity (PC-12 [11]) was 0.3% and the Flu intensity (BV-2 [12]) was 479700. It also gave an Activity (PC-12 [13]) of 2.5%, a Papp at 16 h [14] of 5.5 ×10⁻⁶ cm/s and an Activity (mmolequiv/mmol) [15] of 1.64. The Ratio IC50 (Homo sapiens) was greater than 133, the Activity (PC-12 [16]) was 9% and the Activity (Mus musculus [17]) was “Non-Toxic”. The IC50 (Acetylcholinesterase [18]) was 0.75 µM, the IC50 [19] was 60.2 µM and the IC50 (Acetylcholinesterase [20]) was 0.075 µM. The inhibition [21] was 43.5 to 56.7% and the inhibition (BV-2 [22]) was “Dose-dependent effect”.

— ChEMBL document CHEMBL4270597, “Donepezil-butylated hydroxytoluene (BHT) hybrids as Anti-Alzheimer's disease agents with cholinergic, antioxidant, and neuroprotective properties” (Eur J Med Chem, 2018)
